GI50 and TGI data for 14 compounds are collected here from PubChem BioAssay (NCI).

Among the test systems are 786-0 renal; UACC-257 melanoma; HOP-62 NSCLC; SK-OV-3 ovarian; CAKI-1 renal; MALME-3M melanoma; SF-268 CNS; SK-MEL-5 melanoma; LOX IMVI melanoma; EKVX NSCLC.
What all share (experiment): DTP human tumour cell line panel, 48 h

A word on the GI50: it is the concentration giving 50% growth inhibition. The TGI is the concentration at which net growth stops. High values mean less potent growth arrest, low ones more potent growth arrest.

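A five-concentration, 48-hour dose response in 96-well plates underlies each endpoint, interpolated linearly between surrounding concentrations. The concentration for 50% growth inhibition is given as GI50. Definition used: TGI = concentration required for complete inhibition of growth.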

For `C[C@@H](CS(C)(=O)=O)Nc1ncc2cc(Oc3ccc(F)cc3F)c(=O)n(C)c2n1`, the GI50 with 786-0 renal, in the test with UACC-257 melanoma, with HOP-62 NSCLC, in the test with SK-OV-3 ovarian, with CAKI-1 renal and with MALME-3M melanoma was greater than 25 µM each time. The GI50 in the test on SF-268 CNS, in the test with SK-MEL-5 melanoma and in the test on LOX IMVI melanoma was greater than 25 µM each time. For the same compound, the TGI in the test with 786-0 renal, with UACC-257 melanoma, in the test with HOP-62 NSCLC, in the test on SK-OV-3 ovarian, in the test on CAKI-1 renal and in the test with MALME-3M melanoma was greater than 25 µM in each case. Besides, the concentration for total growth inhibition (TGI) with SF-268 CNS, with SK-MEL-5 melanoma and with LOX IMVI melanoma was greater than 25 µM each time.

On to `Nc1ccc(C(=O)N/C(=C\c2ccc3c(c2)OCO3)c2nc3[nH]c(=S)[nH]c(=O)c3[nH]2)cc1`, for which the TGI in the test on EKVX NSCLC, in the test on 786-0 renal, in the test with SK-OV-3 ovarian, in the test on CAKI-1 renal, in the test on MALME-3M melanoma and in the test on SF-268 CNS was greater than 100 µM in each case. This compound yielded a TGI in the test on SK-MEL-5 melanoma greater than 100 µM.

As for `CCN(CC)CC(C(=O)Nc1c(C)cccc1C)/C(C)=N\NC(=O)C[N+](C)(C)C` (centres undefined), the total growth inhibition concentration (TGI) in the test with 786-0 renal, with UACC-257 melanoma, with HOP-62 NSCLC, in the test with SK-OV-3 ovarian, in the test on CAKI-1 renal and in the test on MALME-3M melanoma was greater than 100 µM throughout. Moreover, the TGI in the test on SF-268 CNS, in the test with SK-MEL-5 melanoma and in the test on LOX IMVI melanoma was greater than 100 µM in each case.

Turning to `Oc1ccc(Cl)cc1-c1cc(-c2ccccc2Cl)[nH]n1`, the GI50 was greater than 100 µM in the test with 786-0 renal; 30.8 µM in the test on UACC-257 melanoma; 19.3 µM with HOP-62 NSCLC; greater than 100 µM with SK-OV-3 ovarian; 2.87 µM in the test on CAKI-1 renal; 9.76 µM in the test on MALME-3M melanoma. Further, the GI50 in the test with SF-268 CNS was 7.71 µM; with SK-MEL-5 melanoma it was 5.66 µM. Besides, the concentration for total growth inhibition (TGI) with 786-0 renal, in the test with UACC-257 melanoma, in the test with HOP-62 NSCLC, in the test with SK-OV-3 ovarian, with CAKI-1 renal and in the test with MALME-3M melanoma was greater than 100 µM each time. Further, the concentration for total growth inhibition (TGI) in the test on SF-268 CNS and in the test with SK-MEL-5 melanoma was greater than 100 µM in each case.

For `FC(F)(F)c1ccc(C2SCc3nc4ccccc4n32)cc1` (centres undefined), the TGI in the test with EKVX NSCLC, in the test with 786-0 renal, with UACC-257 melanoma, in the test on SK-OV-3 ovarian, with MALME-3M melanoma and in the test on SF-268 CNS was greater than 100 µM each time. This compound also returned a concentration for total growth inhibition (TGI) in the test on SK-MEL-5 melanoma greater than 100 µM.

On to `c1cc2c(cc1NC1=NCCO1)CCC2`, for which the TGI in the test with EKVX NSCLC, in the test with 786-0 renal, with HOP-62 NSCLC, in the test on SK-OV-3 ovarian, in the test on MALME-3M melanoma and in the test on SF-268 CNS was greater than 10 µM each time. Moreover, the TGI in the test on SK-MEL-5 melanoma and in the test on LOX IMVI melanoma was greater than 10 µM in each case.

Take `CC(C)=CCCc1c(C)ccc2c1C(=O)C(=O)C(C(C)C)=C2`: the TGI in the test with EKVX NSCLC is greater than 22 µM; in the test on 786-0 renal it was 7.07 µM; in the test on SK-OV-3 ovarian, greater than 22 µM; in the test with CAKI-1 renal, 7.79 µM; in the test with MALME-3M melanoma, 6.78 µM; with SF-268 CNS, 11.8 µM. This compound also yielded a TGI in the test on SK-MEL-5 melanoma greater than 22 µM.

Consider `NS(=O)(=O)c1ccccc1C(=O)N/N=C(\c1nc2ccc([N+](=O)[O-])cc2[nH]c1=O)C(O)c1ccc([N+](=O)[O-])cc1` (centres undefined), for which the TGI in the test with EKVX NSCLC, in the test with 786-0 renal, in the test on UACC-257 melanoma, with SK-OV-3 ovarian, in the test with CAKI-1 renal and with MALME-3M melanoma was greater than 100 µM in each case. Moreover, the TGI in the test with SF-268 CNS, in the test with SK-MEL-5 melanoma and in the test with LOX IMVI melanoma was greater than 100 µM each time.

`C=CCc1cc(OC)c2c(c1)C(O)CC(c1ccc(OC)c(OC)c1)O2` (centres undefined): the concentration for total growth inhibition (TGI) with EKVX NSCLC, in the test on 786-0 renal, with UACC-257 melanoma, in the test on HOP-62 NSCLC, in the test on SK-OV-3 ovarian and in the test on CAKI-1 renal was greater than 100 µM throughout. The TGI with SF-268 CNS and with SK-MEL-5 melanoma was greater than 100 µM each time.

For the compound `COC(=O)[C@@]12C3=NO[C@]1(C(=O)OC)C(O[Si](C)(C)C(C)(C)C)[C@H]1OC(C)(C)O[C@H]1[C@@H]2C(OCc1ccccc1)CC3` (some centres undefined), the TGI in the test on EKVX NSCLC, with 786-0 renal, with SK-OV-3 ovarian, with SK-MEL-5 melanoma and with LOX IMVI melanoma was greater than 100 µM in each case.

As for `O=C(O)CCSC(=O)Nc1cccc(F)c1`, the total growth inhibition concentration (TGI) was greater than 100 µM in the test with EKVX NSCLC; greater than 100 µM with 786-0 renal; greater than 100 µM with UACC-257 melanoma; 95.7 µM in the test with HOP-62 NSCLC; greater than 100 µM with SF-268 CNS; greater than 100 µM in the test on LOX IMVI melanoma.

For `COc1cc2cnc3c4cc(OC(C)C)c(OC)cc4ccc3c2cc1OC`, the concentration for total growth inhibition (TGI) in the test with EKVX NSCLC, with 786-0 renal, with UACC-257 melanoma, in the test with HOP-62 NSCLC, with SK-OV-3 ovarian and in the test with CAKI-1 renal was greater than 100 µM in each case. In addition, the TGI in the test with MALME-3M melanoma, in the test on SF-268 CNS and in the test on SK-MEL-5 melanoma was greater than 100 µM in each case.

With `O=C1NC2(CCCCC2)C2CCCCC(O)C12` (centres undefined), the TGI in the test on EKVX NSCLC, with 786-0 renal, in the test with UACC-257 melanoma, with HOP-62 NSCLC, in the test with CAKI-1 renal and in the test on MALME-3M melanoma was greater than 100 µM in each case. Also, the TGI with SF-268 CNS is greater than 100 µM.

In the case of `CC(=O)[O][Hg][c]1c(N)c(C)cc(C)c1F`, the GI50 was 1.79 µM with 786-0 renal; 1.51 µM in the test with UACC-257 melanoma; 2.75 µM with HOP-62 NSCLC; 4.36 µM in the test with SK-OV-3 ovarian; 3.4 µM with CAKI-1 renal; 1.63 µM with MALME-3M melanoma. The GI50 in the test on SF-268 CNS was 1.22 µM; in the test on SK-MEL-5 melanoma, 1.48 µM; in the test on LOX IMVI melanoma it was 0.833 µM. Also, the TGI is 3.32 µM in the test on 786-0 renal; 2.96 µM with UACC-257 melanoma; 5.49 µM with HOP-62 NSCLC; 15.5 µM with SK-OV-3 ovarian; 12.4 µM with CAKI-1 renal; 3.25 µM in the test on MALME-3M melanoma. In addition, the concentration for total growth inhibition (TGI) in the test on SF-268 CNS was found to be 2.7 µM; in the test with SK-MEL-5 melanoma it was 2.88 µM; in the test on LOX IMVI melanoma it was 2.54 µM.
